Consider six compounds from US10407455B2, “Phillygenin glucuronic acid derivative as well as preparation method and application thereof” (priority 2015, dated 2019).

“And” between values parts separate entries of the source, which are not always exact repeats. Equal entries are not always repeated. Where two headings read alike, the source gives them in different places. Marks after values point to notes of the source that are not given here.

Data set [1] concerns Influenza virus. Briefly: Influences of drugs on virus-induced CPE (antiviral effective rate, MTT), influenza virus. The class given is cell-based.
The subject of data set [2] is Parainfluenza virus. Kind of data set: Influences of drugs on virus-induced CPE (antiviral effective rate, MTT), parainfluenza virus. The format is cell-based. The note with it: Vero cells, 100TCID50, drug at nearly the maximum non-cytotoxic concentration.
The test system of data set [3] is Coxsackie virus A16 (CoxA16). Kind of data set: Influences of drugs on virus-induced CPE (antiviral effective rate, MTT), CoxA16. The format is cell-based. The note with it: CoxA16, Vero cells, 100TCID50, drug at nearly the maximum non-cytotoxic concentration.
Data set [4] has as its system respiratory syncytial virus (RSV). Kind of data set: Influences of drugs on virus-induced CPE (antiviral effective rate, MTT), RSV. The class given is cell-based. As to conditions: Vero cells, 100TCID50, drug at nearly the maximum non-cytotoxic concentration.
Data set [5] deals with herpes simplex virus I (HSV-I). Kind of data set: Influences of drugs on virus-induced CPE (antiviral effective rate, MTT), HSV-I. The format is cell-based. The note with it: Vero cells, 100TCID50, drug at nearly the maximum non-cytotoxic concentration.
In the next data set the test system is adenovirus (AdV). Briefly: Influences of drugs on virus-induced CPE (antiviral effective rate, MTT), ADV. The format is cell-based. As to conditions: Vero cells, 100TCID50, drug at nearly the maximum non-cytotoxic concentration.
In a further data set the test system is enterovirus EV71. Briefly: Influences of drugs on virus-induced CPE (antiviral effective rate, MTT), EV71. The class given is cell-based. The note with it: EV71, Vero cells, 100TCID50, drug at nearly the maximum non-cytotoxic concentration.
Data set [6] concerns Coxsackie virus B3 (CVB3). Briefly: Influences of drugs on virus-induced CPE (antiviral effective rate, MTT), CVB3. The format is cell-based. The note with it: CVB3, Vero cells, 100TCID50, drug at nearly the maximum non-cytotoxic concentration.
Data set [7] relates to influenza virus. The class given is in vivo, Kunming mice. The note with it: for Lung index (X ± S) / Lung index inhibition rate (%): mice infected with influenza virus, 5 days, n = 3; for inhibitory effect on the virus and the mouse virus pneumonia caused by it (in words): in vivo.
The test system of data set [8] is parainfluenza virus. The class given is in vivo, Kunming mice.
Data set [9] has as its system influenza virus. The class given is in vivo, Kunming mice. The note with it: lung suspension, mice infected with influenza virus, 5 days, n = 3.
Data set [10] concerns parainfluenza virus. The class given is in vivo, Kunming mice. As to conditions: lung suspension, mice infected with parainfluenza virus, 5 days, n = 3.
The test system of a further data set is Vero cells. The note with it: 72 hours, MTT, Probit regression.
The mark [11] stands for this setting: Influenza virus, Vero cells, 100TCID50, drug at nearly the maximum non-cytotoxic concentration.
Setting [12] is: High-dose group 10.0 mg/kg/d intragastric.
[13] abbreviates: Low-dose group 2.25 mg/kg/d intragastric.
Setting [14] is: Medium-dose group 5.0 mg/kg/d intragastric.
The mark [15] stands for this setting: mice infected with parainfluenza virus, 13.0 mg/kg/d (Compound I: High-dose group) intragastric, 5 days, n = 3.

Source text for Vero cells: Performing subculture on Vero cells for 1-2 days to form sheets and have clear boundaries, performing trypsin digestion when stereoscopic impression and diopter are high, completely absorbing digestive juice when needle tip shaped holes occur on cells surfaces, blowing away the cells with milliliters of culture solution, counting, diluting to the quantity of 5×10^7 cells/L with the culture solution (DMEM containing 10% fetal calf serum), inoculating in a 96-well culture plate, and enabling the cells to grow to a single layer.
Cytotoxicity test: drugs are diluted with a maintenance solution (DMEM containing 2% fetal calf serum) according to concentrations shown in Table 1-1, and are used for cytotoxicity determination.

Regarding `COc1cc(C2OCC3C(c4ccc(OC5OC(C(=O)O)C(O)C(O)C5O)c(OC)c4)OCC23)ccc1O` (stereo not shown) [Compound I], the “antiviral effective rate (ER %)” value in the data set with Influenza virus [1] (setting [11]) is recorded as 95.81** %; with Parainfluenza virus [2], 96.24** %; in data set [3], 100.00** %; in data set [4], 83.21** %; in data set [5], 91.23** %; in the data set on adenovirus (AdV), 21.26* %. Also, the “antiviral effective rate (ER %)” value with enterovirus EV71 is listed as 52.15%; in data set [6], 10.16%. Also, the “Lung index (X ± S)” value with influenza virus [7] (setting [12]) was 1.145 ± 0.037; in the data set with influenza virus [7] (setting [13]) it was 1.225 ± 0.034; with influenza virus [7] (setting [14]) it was 1.187 ± 0.028; in the data set on parainfluenza virus [8] (mouse, in vivo) it was 1.277 ± 0.054 and 1.318 ± 0.028; in the data set with parainfluenza virus [8] (mouse, in vivo, 13 mg/kg/day), 1.239 ± 0.037. The “Lung index inhibition rate (%)” value with influenza virus [7] (setting [12]) is 22.82%; with influenza virus [7] (setting [13]), 17.85%; in the data set with influenza virus [7] (setting [14]), 20.03%; with parainfluenza virus [8] (mouse, in vivo), 19.73% and 16.94%; with parainfluenza virus [8] (mouse, in vivo, 13 mg/kg/day), 22.26%. In addition, the “inhibitory effect on the virus and the mouse virus pneumonia caused by it (in words)” value (“inhibitory effect” for short) with influenza virus [7] is “obvious inhibitory effects”; with parainfluenza virus [8] (mouse, in vivo), “obvious inhibitory effects”. Further, the “Hemagglutination titer (InX)” value in the data set on influenza virus [9] (setting [12]) turned out to be 19.24 ± 0.513; with influenza virus [9] (setting [13]) it was 22.16 ± 1.270; in the data set on influenza virus [9] (setting [14]), 20.37 ± 0.285; with parainfluenza virus [10] (setting [12]), 19.68 ± 0.638; in the data set with parainfluenza virus [10] (setting [13]), 21.62 ± 0.553; in the data set on parainfluenza virus [10] (setting [14]), 20.47 ± 0.583. The “Inhibition rate (%) of hemagglutination titer” value came out at 40.28% in the data set with influenza virus [9] (setting [12]); 31.26% in the data set with influenza virus [9] (setting [13]); 36.32% in the data set with influenza virus [9] (setting [14]); 38.36% in the data set on parainfluenza virus [10] (setting [12]); 33.61% in the data set with parainfluenza virus [10] (setting [13]); 36.32% with parainfluenza virus [10] (setting [14]). In addition, in the data set on Vero cells, the “Maximum non-cytotoxic concentration (TC0)” value is listed as 0.106 g/L. For the same compound, the “Semi-cytotoxic concentration (TC50)” value with Vero cells was 482 µg/mL.
For `COc1cc([C@H]2OC[C@H]3[C@@H]2CO[C@H]3c2ccc(OC)c(OC)c2)ccc1O` [Phillygenin], the “antiviral effective rate (ER %)” value with Influenza virus [1] (setting [11]) is listed as 88.17** %; in the data set on Parainfluenza virus [2], 94.06** %; in [3] it was 97.03** %; in data set [4] it was 81.41** %; in [5], 85.36** %; in the data set on adenovirus (AdV) it was 14.25* %. Further, the “antiviral effective rate (ER %)” value in the data set on enterovirus EV71 is recorded as 32.27%; in [6] it was 2.29%. For the same compound, the “Lung index (X ± S)” value worked out at 1.208 ± 0.025 in the data set with influenza virus [7] (13.0 mg/kg/d intragastric) and 1.349 ± 0.046 in the data set with parainfluenza virus [8] (setting [15]). Further, the “Lung index inhibition rate (%)” value in the data set on influenza virus [7] (13.0 mg/kg/d intragastric) came out at 11.67%; in the data set on parainfluenza virus [8] (setting [15]) it was 14.56%. In addition, the “Hemagglutination titer (InX)” value is 21.15 ± 1.024 in the data set with influenza virus [9] (13.0 mg/kg/d intragastric) and 23.63 ± 1.156 in the data set on parainfluenza virus [10] (13.0 mg/kg/d intragastric). Besides, the results for the “Inhibition rate (%) of hemagglutination titer” value with influenza virus [9] (13.0 mg/kg/d intragastric) and with parainfluenza virus [10] (13.0 mg/kg/d intragastric) were 29.15% and 27.75%, respectively. Besides, in the data set with Vero cells, the “Maximum non-cytotoxic concentration (TC0)” value worked out at 0.012 g/L. Moreover, the “Semi-cytotoxic concentration (TC50)” value in the data set on Vero cells came out at 293 µg/mL.
`CCOC(=O)C1=C[C@@H](OC(CC)CC)[C@H](NC(C)=O)[C@@H](N)C1` [Oseltamivir phosphate, reference compound]: the “antiviral effective rate (ER %)” value is listed as 82.19** % in the data set on Influenza virus [1] (setting [11]); 92.11** % with Parainfluenza virus [2]; 2.94% in data set [3]; 39.22% in data set [4]; 63.24** % in [5]; 12.12% in the data set with adenovirus (AdV). For the same compound, the entries for the “antiviral effective rate (ER %)” value (in the data set with enterovirus EV71; in data set [6]) were 48.65% and 1.53%, respectively. The “Lung index (X ± S)” value with influenza virus [7] (19.5 mg/kg/d intragastric) was found to be 1.176 ± 0.045; in the data set on parainfluenza virus [8] (mouse, in vivo, 19.5 mg/kg/day) it was 1.241 ± 0.046. The “Lung index inhibition rate (%)” value is 19.76% in the data set with influenza virus [7] (19.5 mg/kg/d intragastric) and 21.83% in the data set with parainfluenza virus [8] (mouse, in vivo, 19.5 mg/kg/day). For the same compound, the “Hemagglutination titer (InX)” value in the data set on influenza virus [9] (19.5 mg/kg/d intragastric) is 20.47 ± 1.104; with parainfluenza virus [10] (19.5 mg/kg/d intragastric), 23.24 ± 1.242. The figures for the “Inhibition rate (%) of hemagglutination titer” value in the data set on influenza virus [9] (19.5 mg/kg/d intragastric) and in the data set with parainfluenza virus [10] (19.5 mg/kg/d intragastric) were 35.26% and 31.14%, respectively. For the same compound, the “Maximum non-cytotoxic concentration (TC0)” value in the data set with Vero cells stood at 0.27 g/L. For the same compound, the “Semi-cytotoxic concentration (TC50)” value with Vero cells worked out at 834 µg/mL.
Turning to `COc1ccc(C2OCC3C(c4ccc(OC5OC(C(=O)O)C(O)C(O)C5O)c(O)c4)OCC23)cc1OC` (stereo not shown) [Compound II], the “antiviral effective rate (ER %)” value in the data set on Influenza virus [1] (setting [11]) is 92.74** %; with Parainfluenza virus [2], 90.13** %; in data set [3], 99.25** %; in [4], 81.14** %; in data set [5], 93.35** %; in the data set with adenovirus (AdV) it was 20.46* %. Also, the “antiviral effective rate (ER %)” value in the data set with enterovirus EV71 amounted to 54.32%; in data set [6], 11.18%. The “inhibitory effect” value in the data set on influenza virus [7] is “obvious inhibitory effects”; with parainfluenza virus [8] (mouse, in vivo), “obvious inhibitory effects”. The “Maximum non-cytotoxic concentration (TC0)” value in the data set with Vero cells is reported as 0.103 g/L. Also, the “Semi-cytotoxic concentration (TC50)” value in the data set with Vero cells is 412 µg/mL.
For the compound `COc1cc(C2OCC3C(c4ccc5c(c4)OCO5)OCC23)ccc1OC1OC(C(=O)O)C(O)C(O)C1O` [Compound III, 33,34-Methylenedioxy phillygenin-8-O-β-D-glucuronide], the “antiviral effective rate (ER %)” value in the data set with Influenza virus [1] (setting [11]) is given as 91.35** %; in the data set with Parainfluenza virus [2] it was 92.22** %; in [3], 100.00** %; in data set [4], 86.18** %; in data set [5], 96.06** %; in the data set on adenovirus (AdV), 22.17* %. Moreover, the “antiviral effective rate (ER %)” value with enterovirus EV71 amounted to 51.64%; in data set [6], 9.63%. The “inhibitory effect” value is listed as “obvious inhibitory effects” with influenza virus [7] and “obvious inhibitory effects” with parainfluenza virus [8] (mouse, in vivo). The “Maximum non-cytotoxic concentration (TC0)” value with Vero cells amounted to 0.0906 g/L. Further, the “Semi-cytotoxic concentration (TC50)” value in the data set with Vero cells came out at 435 µg/mL.
As for `NC(=O)c1ncn([C@@H]2O[C@H](CO)[C@@H](O)[C@H]2O)n1` [Ribavirin, reference compound], the “antiviral effective rate (ER %)” value is on record as 56.44** % with Influenza virus [1]; 95.13** % with Parainfluenza virus [2]; 0.72% in data set [3]; 52.15* % in data set [4]; 64.65** % in data set [5]; 0.47% with adenovirus (AdV). The “antiviral effective rate (ER %)” value in the data set on enterovirus EV71 was 4.03** %; in [6], 12.14%. Also, the “Hemagglutination titer (InX)” value with influenza virus [9] (58.5 mg/kg/d intragastric) is given as 21.87 ± 1.050; with parainfluenza virus [10] (58.5 mg/kg/d intragastric), 24.32 ± 1.123. In addition, the entries for the “Inhibition rate (%) of hemagglutination titer” value in the data set on influenza virus [9] (58.5 mg/kg/d intragastric) and in the data set on parainfluenza virus [10] (58.5 mg/kg/d intragastric) were 32.35% and 23.25%, respectively.
